From publication PMC4028696, “Development of a screen to identify selective small molecules active against patient-derived metastatic and chemoresistant breast cancer cells” (Breast Cancer Research : BCR, 2013)

Legend:
MCF-7 cells = assay: Dose response assay, ATPlite viability, four days; type: cell-based, human; conditions: Homo sapiens, MCF7, 96 h; MCF-7, four days of treatment, ATP viability
Method: (§1) Cells were seeded in white 96-well plates (Costar, Tewksbury, MA, USA) in 100 μL of their respective media at varying densities to achieve 80% to 90% confluency after five days in culture. The compounds dissolved in DMSO were diluted in their corresponding media containing 2% FBS and an EP Motion 5075 (Eppendorf North America, Hauppauge, NY, USA) liquid handler was utilized to perform a serial dilution. […] After the cells were cultured for 24 hours, the media were aspirated and the cells were treated with the compounds and vehicle controls in triplicate. After four days of treatment, viability was determined utilizing the ATPlite 1step assay system (Perkin Elmer, Waltham, MA, USA) according to the manufacturer's instructions. Luminescence measurements were acquired utilizing a Perkin Elmer 2104 EnVision plate reader. Raw luminescence values were normalized to the DMSO vehicle control wells.

MDA-MB-231 cells = assay: Dose response assay, ATPlite viability, four days; type: cell-based, human; conditions: Homo sapiens, 96 h; MDA-MB-231, four days of treatment, ATP viability
Method: as §1

PE1007070 cells [1] = assay: Dose response assay, ATPlite viability, four days; type: cell-based, human; conditions: Homo sapiens, 96 h, PE1007070, four days of treatment, ATP viability
Method: as §1

PE1008032 cells = assay: Dose response assay, ATPlite viability, four days; type: cell-based, human; conditions: Homo sapiens, 96 h, PE1008032, four days of treatment, ATP viability
Method: as §1

PE904557a cells = assay: Dose response assay, ATPlite viability, four days; type: cell-based, human; conditions: Homo sapiens, 96 h, four days of treatment, ATP viability, N/A = data could not be fitted
Method: as §1

T47D cells = assay: Dose response assay, ATPlite viability, four days; type: cell-based, human; conditions: Homo sapiens, 96 h, four days of treatment, ATP viability
Method: as §1

hTERT-HMEC cells [2] = assay: Dose response assay, ATPlite viability, four days; type: cell-based, human
Method: as §1

[3] = Dose response assay, ATPlite viability, four days; type: cell-based; conditions: human, MCF-10A cells, 200 μM C-6, read-out: cells still viable
Method: as §1

PE1007070 cells [4] = assay: Live/dead assay, monolayer; type: cell-based, human; conditions: 20 μM, five days, vs DMSO
Method: (§2) The hTERT-HMEC and PE1007070 cells were seeded in black wall clear bottom 96-well plates (Greiner Bio-one, Monroe, NC, USA) in 100 μL of modified M87 media at varying densities to achieve 80% to 90% confluency at the end of the assay. After 24 hours, the media were aspirated and the cells were treated with 20 μM C-6 or the corresponding 0.02% (v/v) DMSO vehicle control. After culturing for five days, the viability and cytotoxicity was determined with the Live/dead assay (Life Technologies) according to the manufacturer's instructions. Briefly, the media were aspirated and the cells were treated with 4 μM Calcein-AM and 8 μM Ethidium homodimer-1 diluted in (D)MEM/F12 for 30 minutes at 37°C. Subsequent imaging was performed with an IX81 microscope (Olympus, Center Valley, PA, USA) running Slide Book 5.0 software (Intelligent Imaging Innovations, Denver, CO, USA).

hTERT-HMEC cells [5] = assay: Live/dead assay, monolayer; type: cell-based, human; conditions: 20 μM, five days
Method: as §2

caspase-3/7, -8 or -9 = assay: Caspase-Glo caspase activity assay; type: cell-based, human; conditions: 30 μM, 24 or 48 hours, normalized to ATP viability
Method: Adherent cells were seeded in two identical white 96-well plates (Costar) in 100 μL of their respective media at varying densities to achieve 80% to 90% confluency at the end of the assay. After 24 hours, the media were aspirated and the cells were treated with 30 μM C-6 or a matched 0.03% (v/v) DMSO vehicle control in the corresponding media containing 2% FBS. For suspension cultures, cells were first seeded in 75 μL of media. At the start of treatment, 25 μL of a 4× concentration of C-6 or a matched (v/v) DMSO vehicle control was added to each well such that the final volume in each well was 100 μL and the final concentration of C-6 was 30 μM. For the caspase activity assays, additional wells were treated with 1 μM staurosporine. […] For the Caspase-Glo assay, cell viability was determined for the additional 96-well plate utilizing the ATPlite 1step assay system (Perkin Elmer) according to the manufacturer's instructions. For the AAF-Glo assay, the total protein in each well of the additional plate was measured using the BCA protein assay kit (Peirce, Rockford, IL, USA). Luminescence measurements were acquired utilizing a Perkin Elmer 2104 EnVision plate reader. Raw luminescence values for each assay were normalized to the DMSO vehicle control wells. […]

LC3A/B-II = assay: Western blot for LC3A/B-II (autophagy); type: cell-based, human; conditions: T47D cells, 30 μM, 48 hours
Method: Cells were lysed in cold radioimmunoprecipitation assay buffer (50 mM Tris HCl, 150 mM NaCl, 0.1% sodium dodecyl sulfate (SDS), 0.5% sodium deoxycholate, 1% Triton X-100, pH = 8.0) supplemented with protease inhibitor cocktail (Sigma), phosphatase inhibitor cocktail 2 (Sigma) and 1 mM dithiothreitol (DTT) (Sigma). The lysate was sonicated for 30 seconds using a 450 Sonifier (Branson Ultrasonics, Danbury, CT, USA) and was centrifuged at 14,000 RPM for five minutes at 4°C. The protein concentration was determined using the BCA protein assay kit (Peirce, Rockford, IL, USA) and the samples were boiled for five minutes with 4× SDS Laemmli buffer. Equal amounts of protein were resolved on SDS polyacrylamide gels and transferred to an Immobilon-FL PVDF membrane (EMD Millipore). Blots were blocked in Odyssey Blocking Buffer (LI-COR, Lincoln, NE, USA) for one hour at room temperature, stained with primary antibodies overnight at 4°C, washed, and stained with IR800CW or IR680 anti-mouse or rabbit secondary antibodies (LI-COR) for one hour at room temperature. Blots were imaged with the Odyssey Infrared Imaging System (LI-COR).

[6] = Solubility (stated property); type: physicochemical

`COc1cc(OC)cc(C(C)c2ccc(NC(=O)OC(C)(C)C)cc2)c1` (stereo not shown) [C-6] gave an EC50 (MCF-7 cells) of 11 µM, an EC50 (MDA-MB-231 cells) of 10.5 µM and an EC50 (PE1007070 cells [1]) of 24.4 µM. It also gave an EC50 (PE1008032 cells) of 33.3 µM, an EC50 (PE904557a cells) of 75.7 µM and an EC50 (T47D cells) of 8.29 µM. The effect on viability (hTERT-HMEC cells [2]) was “did not significantly reduce the viability”, the viability at 4 days, 200 μM [3] was > 70% and the “number of dead cells” value (PE1007070 cells [4]) was “led to an increase in the number of dead cells”. The “morphology and dead (ethidium positive) cells” value (hTERT-HMEC cells [5]) was “did not induce a gross morphological phenotype in the hTERT-HMECs or a significant increase in dead (ethidium bromide positive) cells”, the caspase activity (caspase-3/7, -8 or -9) was “did not induce significant caspase activity” and the LC3A/B-II levels (LC3A/B-II) was “small increase”. The solubility [6] was “poor solubility”.
